# What was measured:
# [1] = LogP, Gemini Profiler titration; format: physicochemical
# Description: LogP was measured using a Gemini Profiler instrument (pION Inc., Billerica, MA). 1–2 mg of compound was dissolved in octanol (0.5 mL) in a test tube. The test tube was purged with argon and a magnetic stir bar was added. The solution was treated with aqueous KCl (2.5 mL, 0.15 M) and stirred for 10 min. The pH was adjusted to 2 by addition of aqueous HCl (0.5 M). The resulting solution was titrated by adding aqueous KOH (0.5 M) in small aliquots (controlled by the Gemini Profiler software), until the pH reached 12. The volume of each addition and the corresponding pH of the test solution were recorded. Data were processed using pS software. The data points were fitted to a Bjerrum plot to achieve the best GOF (goodness of fitness) and a logP value was obtained. All measurements were conducted in triplicate.
# Kinetic solubility = format: physicochemical
# Description: Solubility assays were carried out on a Biomek FX lab automation workstation (Beckman Coulter, Inc., Fullerton, CA) using µSOL Evolution software (pION Inc., Woburn, MA). Compound stock (10 mM in DMSO, 10 µL) was added to 1-propanol (190 µL) to make a reference stock plate. Reference stock solution (5 µL) was mixed with 1-propanol (70 µL) and citrate phosphate buffered saline (75 µL) to make the reference plate and the UV spectrum (250 nm–500 nm) of the […] was read. Test compound stock (10 mM in DMSO, 6 µL) was added to buffer (594 µL) in a 96-well storage plate and mixed. The storage plate was sealed and incubated at room temperature for 18 h. The suspension was then filtered through a 96-well filter plate (pION Inc., Woburn, MA). Filtrate (75 µL) was mixed with 1-propanol (75 µL) to make the sample plate, and the UV spectrum (250 nm – 500 nm) of the sample plate was read. Calculation was carried out by µSOL Evolution software based on the […] (area under curve) of UV spectrum of the sample plate and the reference plate. All compounds were tested in triplicate.
# [2] = Parallel artificial membrane permeability assay (PAMPA); format: in vitro ADME
# Description: The assay was conducted using a Biomek FX lab automation workstation (Beckman Coulter, Inc., Fullerton, CA) with PAMPA evolution 96 command software (pION Inc., Woburn, MA). Test compound stock (10 mM in DMSO, 3 µL) was mixed with citrate phosphate buffered saline (597 µL) to make diluted test compound. Diluted test compound (150 µL) was transferred to a UV plate (pION Inc., Woburn, MA) and the UV spectrum (250–500 nm) was read as the reference plate. Each well of the donor plate in a PAMPA sandwich plate (pION Inc., Woburn, MA) contained a filter that was painted on one side with 4 µL GIT lipid (pION Inc., Woburn, MA) to form a membrane. Each well in the acceptor plate in a PAMPA sandwich, preloaded with magnetic stir bars, was filled with acceptor solution buffer (200 µL, pION Inc., Woburn, MA). The donor plate was filled with diluted test compound (180 µL). The combined PAMPA plate was placed on a pIon Gut-box™ and stirred for 30 min. The UV spectrum (250–500 nm) of the donor and the acceptor were read. The permeability coefficient and recovery were calculated using PAMPA evolution 96 command software (pION Inc., Woburn, MA) based on the whole spectrum measured from the reference plate, the donor plate, and the acceptor plate. All compounds were tested in triplicate.
# mouse plasma proteins = assay: Plasma protein binding (RED), mouse; format: in vitro ADME; conditions: average of 20, 4, 0.8 µM
# Description: (§1) A Rapid Equilibrium Dialysis (RED) Plate (Thermo Scientific, catalog #, PI-90007) was used to determine the percentage of compound binding to plasma proteins. The positive control for this experiment was propranolol-HCl (10 mM in DMSO) and the internal standard was warfarin (2 µM in methanol). 10 mM stocks of compound in DMSO were diluted with DMSO acetonitrile (1:4, v:v) to three different intermediate concentrations: high (2 mM), medium (0.4 mM) and low (0.08 mM). A 10 mM stock of propranolol in DMSO was diluted to 0.4 mM concentration in DMSO:acetonitrile (1:4 v:v). In 16 Eppendorf tubes, the control (10 µL) or each of three compound dilutions (10 µL) were each added to separate aliquots of mouse, rat, dog, and human plasma (990 µL). In the RED plate, potassium phosphate buffer (500 µL, 0.1 M, pH 7.4, 37 °C) was placed in every white well and each plasma/compound mixture was added to each of 3 red wells. […] The compounds and internal standard were detected by selected ion recording (SIR). Using the peak area ratio of compound to warfarin from the SIR spectra, the percentage of free compound [1] and bound compound [2] were calculated using the following equations: (1) % free = (concentration buffer chamber/concentration plasma chamber)*100, and (2) % bound = 100 − % free.
# human plasma proteins = assay: Plasma protein binding (RED), human; format: in vitro ADME; conditions: average of 20, 4, 0.8 µM
# Description: as §1
# [3] = Rat single oral dose toxicology / toxicokinetic study; format: in vivo, male Sprague Dawley rats
# Description: The high dose levels of both compounds (50, 100, 200 mg/kg, PO, (+)-SJ733/311) were also independently tested by SRI, with a single oral gavage administration. Blood (through jugular vein) and urine were collected at time points up to 72 and 24 h post dose, respectively. Supernatant plasma was removed following centrifugation and stored frozen (− 70 °C) until LC–MS analysis. For toxicology studies, male Sprague Dawley rats were administered 50, 100, 250, 500, or 750 mg/kg of (r)-SJ733 or (r)-SJ311 by oral gavage (one dose per animal). Body weights were recorded on Day 1 prior to dose administration and on Day 4. Blood samples (400 µL) were collected at 4 and 24 h post drug administration from the retro-orbital sinus. Potassium EDTA treated plasma was collected and kept frozen at -70 °C for bioanalytical analysis. Rat samples from the toxicokinetic study at SRI were analyzed at SJCRH using the method described above. The calibration range was from 47 to 26,000 ng/mL for plasma.
SMILES,LogP [1],Kinetic solubility (Kinetic solubility; pH 3) [µM],Kinetic solubility (Kinetic solubility; pH 5) [µM],Kinetic solubility (Kinetic solubility; pH 7.4) [µM],"Permeability, PAMPA ([2]; pH 3)","Permeability, PAMPA ([2]; pH 5)","Permeability, PAMPA ([2]; pH 7.4)",% bound (mouse plasma proteins) [%],% bound (human plasma proteins) [%],"clinical observation ([3]; rats, 100 and 500 mg/kg groups, single oral gavage)",AUCinf at the highest event free dose ([3]; rat),"adverse events ([3]; rat, at any dose)","provable therapeutic window ([3]; rat, in vivo)"
N#Cc1cc(NC(=O)C2c3ccccc3C(=O)N(CC(F)(F)F)C2c2cccnc2)ccc1F (racemic) [(r)-SJ733],2.95 ± 0.03 (logP( +)),84 ± 3,84 ± 3,65 ± 4,66 ± 3.5 10^–6 cm/s,380 ± 7.2 10^–6 cm/s,350 ± 130 10^–6 cm/s,95.7 ± 0.6,94.3 ± 0.6,–,–,–,–
N#Cc1cc(NC(=O)C2c3ccccc3C(=O)N(CC(F)(F)F)C2c2cn[nH]c2)ccc1F (racemic) [(r)-SJ311],1.24 ± 0.28 (logP( +)),80 ± 7,80 ± 7,66 ± 7,17 ± 2.3 10^–6 cm/s,15 ± 6.7 10^–6 cm/s,9.4 ± 7.0 10^–6 cm/s,93.7 ± 0.7,95.3 ± 0.6,Ruffled fur,–,–,–
N#Cc1cc(NC(=O)[C@H]2c3ccccc3C(=O)N(CC(F)(F)F)[C@@H]2c2cccnc2)ccc1F (racemic) [SJ733],–,–,–,–,–,–,–,–,–,–,over 217 µM h,No adverse events,above 40

# Reference: paper PMC7893776, “Selecting an anti-malarial clinical candidate from two potent dihydroisoquinolones” (Malaria Journal, 2021)
